Measurements as given in article PMC4965013, “Open Source Drug Discovery with the Malaria Box Compound Collection for Neglected Diseases and Beyond” (PLoS Pathogens, 2016).

What was measured:
[1] = tested on: P. falciparum 3D7 trophozoites; assay: Metabolomic fingerprint profiling LC-MS; type: cell-based, Plasmodium falciparum; design: UDP-D-glucose / ADP-D-glucose: unit not given here; details: for Acetyllysine / N-acetyl-L-ornithine / N-carbamoyl-L-aspartate / NADPH / dAMP / dCMP / dTDP / dTMP / dTTP / dihydroorotate / orotate / DLH / DLS/SDL/SID / PD / PEE / PVNF / 3-phosphoglycerate / ADP-D-glucose / ATP / CDP / D-sedoheptulose-1/7-phosphate / FAD / GMP / NAD+ / NADP+ / Octoluse Bisphosphate / Pyroglutamic acid / UDP-D-glucose / UDP-D-glucuronate / UDP-N-acetyl-glucosamine / UDP / UMP / UTP / a-ketoglutarate / citrate/isocitrate / cytidine / dATP / dGMP/AMP / fumarate / glucose-1/6-phosphate / glycerate / guanine / guanosine / hypoxanthine / indole / inosine / nicotinate / ornithine / phosphoenolpyruvate / pyruvate / ribose-phosphate / sarcosine/alanine / sn-glycerol-3-phosphate / succinate/methylmalonic acid / uridine / xanthosine: S2 Table Metabolomics; for Acetyllysine: metabolite Acetyllysine; for N-acetyl-L-ornithine: metabolite N-acetyl-L-ornithine; for N-carbamoyl-L-aspartate: metabolite N-carbamoyl-L-aspartate; for NADPH: metabolite NADPH; for dAMP: metabolite dAMP; for dCMP: metabolite dCMP; for dTDP: metabolite dTDP; for dTMP: metabolite dTMP; for dTTP: metabolite dTTP; for dihydroorotate: metabolite dihydroorotate; for orotate: metabolite orotate; for DLH: peptide DLH; for DLS/SDL/SID: peptide DLS/SDL/SID; for PD: peptide PD; for PEE: peptide PEE; for PVNF: peptide PVNF; for 3-phosphoglycerate: metabolite 3-phosphoglycerate; for ADP-D-glucose: metabolite ADP-D-glucose; for ATP: metabolite ATP; for CDP: metabolite CDP; for CDP / D-sedoheptulose-1/7-phosphate / GMP / Octoluse Bisphosphate / UDP / UMP / UTP / citrate/isocitrate / dGMP/AMP / fumarate / glucose-1/6-phosphate / glycerate / guanine / guanosine / inosine / pyruvate / sarcosine/alanine / succinate/methylmalonic acid / uridine / xanthosine: change in metabolite level after compound treatment; for D-sedoheptulose-1/7-phosphate: metabolite D-sedoheptulose-1/7-phosphate; for FAD: metabolite FAD; for GMP: metabolite GMP; for NAD+: metabolite NAD+; for NADP+: metabolite NADP+; for Octoluse Bisphosphate: metabolite Octoluse Bisphosphate; for Pyroglutamic acid: metabolite Pyroglutamic acid; for UDP-D-glucose: metabolite UDP-D-glucose; for UDP-D-glucuronate: metabolite UDP-D-glucuronate; for UDP-N-acetyl-glucosamine: metabolite UDP-N-acetyl-glucosamine; for UDP: metabolite UDP; for UMP: metabolite UMP; for UTP: metabolite UTP; for a-ketoglutarate: metabolite a-ketoglutarate; for citrate/isocitrate: metabolite citrate/isocitrate; for cytidine: metabolite cytidine; for dATP: metabolite dATP; for dGMP/AMP: metabolite dGMP/AMP; for fumarate: metabolite fumarate; for glucose-1/6-phosphate: metabolite glucose-1/6-phosphate; for glycerate: metabolite glycerate; for guanine: metabolite guanine; for guanosine: metabolite guanosine; for hypoxanthine: metabolite hypoxanthine; for indole: metabolite indole; for inosine: metabolite inosine; for 2_3-Diphosphoglyceric acid / 4-phosphopantothenate / 6-phospho-D-gluconate / FMN / IMP / Pyrophosphate / Sedoheptoluse bisphosphate / cyclic-AMP / glutathione disulfide / lactate / myo-inositol: metabolite level change after treatment; for nicotinate: metabolite nicotinate; for ornithine: metabolite ornithine; for phosphoenolpyruvate: metabolite phosphoenolpyruvate; for pyruvate: metabolite pyruvate; for ribose-phosphate: metabolite ribose-phosphate; for sarcosine/alanine: metabolite sarcosine/alanine; for sn-glycerol-3-phosphate: metabolite sn-glycerol-3-phosphate; for succinate/methylmalonic acid: metabolite succinate/methylmalonic acid; for uridine: metabolite uridine; for xanthosine: metabolite xanthosine
[2] = tested on: P. falciparum; assay: EC50 listed in S2 Table Metabolomics (used to set the concentration tested); type: cell-based; details: Plasmodium falciparum; EC50 used for Factor_XEC50 in metabolomics; read-out: EC50_nM

How did the Acetyllysine [1] turn out when Cc1cc(C)c2c(c1)OCN(Cc1ccccc1Cl)C2 [MMV006558] was run?
Its Acetyllysine is -2.938.

What about the N-acetyl-L-ornithine [1] of the same compound?
The N-acetyl-L-ornithine was -1.964.

And the N-carbamoyl-L-aspartate [1]?
Its N-carbamoyl-L-aspartate is -1.702.

And the NADPH [1]?
Its NADPH is 1.445.

And the dAMP [1]?
Its dAMP is -0.9651.

And the dCMP [1]?
Its dCMP is -1.6.

What about the dTDP [1] of the same compound?
The dTDP was -0.8236.

And the dTMP [1]?
The dTMP was -0.6183.

And the dTTP [1]?
Its dTTP is -0.3776.

And the dihydroorotate [1]?
Its dihydroorotate is -0.3745.

And the orotate [1]?
The orotate was -1.522.

And the DLH [1]?
The DLH was -1.617.

And the DLS/SDL/SID [1]?
The DLS/SDL/SID was -1.662.

And the PD [1]?
Its PD is -0.9196.

And the PEE [1]?
The PEE was -0.2697.

And the PVNF [1]?
Its PVNF is -2.308.

What about the 3-phosphoglycerate [1] of the same compound?
The 3-phosphoglycerate was 0.4267.

What about the ADP-D-glucose [1] of the same compound?
The ADP-D-glucose was 0.5003.

And the ATP [1]?
Its ATP is -0.07449.

And the CDP [1]?
The CDP was -0.458.

And the D-sedoheptulose-1/7-phosphate [1]?
The D-sedoheptulose-1/7-phosphate was -0.2481.

What about the FAD [1] of the same compound?
Its FAD is -0.09577.

What about the GMP [1] of the same compound?
The GMP was -0.6278.

And the “NAD+” value [1]?
Its value is -0.187.

What about the “NADP+” value [1] of the same compound?
Its value is 0.696.

And the “Octoluse Bisphosphate” value [1]?
Its value is 0.1942.

And the Pyroglutamic acid [1]?
The Pyroglutamic acid was -0.3768.

And the UDP-D-glucose [1]?
Its UDP-D-glucose is -0.01001.

What about the UDP-D-glucuronate [1] of the same compound?
The UDP-D-glucuronate was -0.03433.

What about the UDP-N-acetyl-glucosamine [1] of the same compound?
The UDP-N-acetyl-glucosamine was -0.1316.

What about the UDP [1] of the same compound?
Its UDP is -0.1918.

What about the UMP [1] of the same compound?
The UMP was -1.063.

And the UTP [1]?
Its UTP is -0.2178.

What about the a-ketoglutarate [1] of the same compound?
The a-ketoglutarate was -0.938.

And the citrate/isocitrate [1]?
Its citrate/isocitrate is -0.4783.

What about the cytidine [1] of the same compound?
Its cytidine is 0.109.

And the dATP [1]?
The dATP was -0.2852.

And the dGMP/AMP [1]?
Its dGMP/AMP is -0.5349.

And the fumarate [1]?
Its fumarate is -0.8198.

What about the glucose-1/6-phosphate [1] of the same compound?
The glucose-1/6-phosphate was -0.2057.

And the glycerate [1]?
The glycerate was -0.7466.

And the guanine [1]?
The guanine was -1.035.

What about the guanosine [1] of the same compound?
Its guanosine is -2.479.

And the hypoxanthine [1]?
Its hypoxanthine is -0.7995.

What about the indole [1] of the same compound?
Its indole is -0.5445.

And the inosine [1]?
The inosine was -0.9523.

And the 2_3-Diphosphoglyceric acid [1]?
Its 2_3-Diphosphoglyceric acid is 0.34.

What about the 4-phosphopantothenate [1] of the same compound?
The 4-phosphopantothenate was -0.8939.

What about the 6-phospho-D-gluconate [1] of the same compound?
Its 6-phospho-D-gluconate is 0.2839.

What about the FMN [1] of the same compound?
Its FMN is -0.2862.

What about the IMP [1] of the same compound?
The IMP was -0.2354.

And the Pyrophosphate [1]?
Its Pyrophosphate is 0.3685.

What about the Sedoheptoluse bisphosphate [1] of the same compound?
The Sedoheptoluse bisphosphate was 0.2016.

What about the cyclic-AMP [1] of the same compound?
Its cyclic-AMP is -0.8187.

What about the glutathione disulfide [1] of the same compound?
Its glutathione disulfide is -0.2625.

And the lactate [1]?
Its lactate is -0.7314.

What about the myo-inositol [1] of the same compound?
The myo-inositol was -0.7596.

What about the nicotinate [1] of the same compound?
Its nicotinate is -0.1344.

What about the ornithine [1] of the same compound?
The ornithine was -0.1775.

And the phosphoenolpyruvate [1]?
The phosphoenolpyruvate was 0.3748.

What about the pyruvate [1] of the same compound?
The pyruvate was -0.4201.

And the ribose-phosphate [1]?
Its ribose-phosphate is -0.1559.

And the sarcosine/alanine [1]?
Its sarcosine/alanine is -0.2827.

And the sn-glycerol-3-phosphate [1]?
Its sn-glycerol-3-phosphate is 0.1135.

What about the succinate/methylmalonic acid [1] of the same compound?
Its succinate/methylmalonic acid is -0.725.

And the uridine [1]?
The uridine was -1.514.

And the xanthosine [1]?
The xanthosine was -1.032.

And the EC50 [2]?
Its EC50 is 268 nM.

Which results are given for c1ccc2cc3c(Nc4ccc(N5CCOCC5)cc4)ccnc3cc2c1 [MMV006861]?
Acetyllysine [1]: 0.001155; N-acetyl-L-ornithine [1]: 0.1202; N-carbamoyl-L-aspartate [1]: 0.09461; NADPH [1]: 0.6132; dAMP [1]: -0.1929; dCMP [1]: 0.2768; dTDP [1]: 0.03656; dTMP [1]: 0.1106; dTTP [1]: -0.07535; dihydroorotate [1]: 0.311; orotate [1]: -0.21; DLH [1]: 0.09611; DLS/SDL/SID [1]: 0.08895; PD [1]: 0.008487; PEE [1]: 0.1992; PVNF [1]: -0.07307; 3-phosphoglycerate [1]: -0.2621; ADP-D-glucose [1]: 0.04555; ATP [1]: 0.1894; CDP [1]: 0.09878; D-sedoheptulose-1/7-phosphate [1]: 0.1691; FAD [1]: 0.1498; GMP [1]: 0.6017; NAD+ [1]: 0.04038; NADP+ [1]: 0.01746; Octoluse Bisphosphate [1]: 0.06917; Pyroglutamic acid [1]: 0.7013; UDP-D-glucose [1]: -0.003086; UDP-D-glucuronate [1]: -0.03493; UDP-N-acetyl-glucosamine [1]: 0.008052; UDP [1]: 0.1461; UMP [1]: -0.13; UTP [1]: -0.06454; a-ketoglutarate [1]: -0.4694; citrate/isocitrate [1]: -0.2815; cytidine [1]: -0.002725; dATP [1]: -0.03123; dGMP/AMP [1]: -0.0595; fumarate [1]: -0.1611; glucose-1/6-phosphate [1]: 0.03738; glycerate [1]: -0.6693; guanine [1]: -0.08848; guanosine [1]: -0.211; hypoxanthine [1]: -0.05987; indole [1]: -0.08261; inosine [1]: -0.2117; 2_3-Diphosphoglyceric acid [1]: 0.06563; 4-phosphopantothenate [1]: -0.011; 6-phospho-D-gluconate [1]: -0.02789; FMN [1]: 0.1069; IMP [1]: -0.3519; Pyrophosphate [1]: 0.04971; Sedoheptoluse bisphosphate [1]: 0.0295; cyclic-AMP [1]: 0.009655; glutathione disulfide [1]: -0.09687; lactate [1]: -0.2479; myo-inositol [1]: -0.35; nicotinate [1]: -0.2896; ornithine [1]: -0.2133; phosphoenolpyruvate [1]: -0.1566; pyruvate [1]: -0.275; ribose-phosphate [1]: -0.01288; sarcosine/alanine [1]: -0.00437; sn-glycerol-3-phosphate [1]: -0.1431; succinate/methylmalonic acid [1]: -0.003665; uridine [1]: -0.2532; xanthosine [1]: -0.2406; EC50 [2]: 251 nM
